First: CC(CC(C(=O)N(C)C)(c1ccccc1)c1ccccc1)N1CCC(NC(=O)c2ccccc2O)C(O)C1 (stereo not given)
Second: O=[N+]([O-])c1cc(C(F)(F)F)ccc1NCCN1CCN(C(c2ccccc2)c2ccccc2)CC1
The melting point of the first is higher: 154 °C for the first, 152 °C for the second.

Compared with `COc1cccc2c1CCC1C(=O)OC(=O)C21` (stereo not given), `COc1cc2c(c(OC)c1OC)CCC(C(=O)Cc1cccc(F)c1)C2C#N` (stereo not given) is lower in melting point: 138 to 140 °C for the first, 120 to 122 °C for the second.

Compared with `CC(C)(C#N)Cc1cccc(CC(C)(C)C#N)c1`, `CC(C)(C)c1cc(-c2ccc(N)cc2)cc(C(C)(C)C)c1O` is higher in melting point: 58 to 63 °C for the first, 113 to 114 °C for the second.

First: COc1cc2ccoc2cc1N1CCN(CC2Cc3ccccc3C2)CC1
Second: COc1ccc(-c2[nH]nc3c2CCc2ccccc2-3)cc1
The melting point of the first is higher: 188 to 192 °C for the first, 161 to 163 °C for the second.

First: CC(=O)OC1CSC(Oc2cncc(-c3cccnc3F)c2)C(OC(C)=O)C1OC(C)=O (stereo not given)
Second: COc1ccc(-c2ccc(OC3SCC(OC(C)=O)C(OC(C)=O)C3OC(C)=O)cn2)cc1 (stereo not given)
The melting point of the first is lower: 169 to 170 °C for the first, 208 °C for the second.

Compared with `Cc1ncc(CCCOc2c(C)cc(-c3nnn(C)n3)cc2C)s1`, `COc1cc(OC)c2c(=O)[nH]c(-c3cc(C)c(OCCN4CCN(C)CC4)c(C)c3)cc2c1` is higher in melting point: 86 to 88 °C for the first, 195 to 198 °C for the second.

First: CC(=O)c1ccc2c(c1)C(N1CCCC1=O)=CC(C)(C)O2
Second: COc1cc2c(cc1S(=O)(=O)c1cccs1)[C@@H](N1CCCC1=O)[C@H](O)C(C)(C)O2 (relative stereo)
The melting point of the first is lower: 106 to 108 °C for the first, 135 to 136 °C for the second.

First: CC1(Cl)C=CC2=C(c3cccc(CCCC(=O)O)c3)C(CC(=O)Nc3ccc(F)cc3C(F)(F)F)C(=O)OC2=C1 (stereo not given)
Second: COC(=O)c1cccc(-c2cccc(CC(=O)O)c2)c1
The melting point of the first is higher: 196 °C for the first, 84.5 to 85.5 °C for the second.

Compared with `COc1cc(OC)nc(NC(=O)NS(=O)(=O)c2ccccc2S(=O)(=O)OCC(F)(F)F)n1`, `CCOC(=O)c1cccc(NC(=O)C(COS(C)(=O)=O)NS(=O)(=O)c2ccc(Cl)cc2)c1` (racemic) is lower in melting point: 203 to 205 °C for the first, 125 to 129 °C for the second.

First: N#CC(C(=O)c1ccc([N+](=O)[O-])cc1)=C1CCCCN1
Second: CC1(C(=O)O)CCCc2c(-c3ccc(Cl)cc3)noc2C1 (stereo not given)
The melting point of the first is lower: 182 °C for the first, 232 to 235 °C for the second.

Compared with `C=CCc1c(O)cc(OC)cc1C(=O)O`, `CC(C)Oc1ccc(C(=O)O)c(C(=O)O)c1` is lower in melting point: 120 to 122 °C for the first, 116 to 118 °C for the second.

First: CCn1nnc(-c2cccc(-c3ccnc4c(C(=O)c5cccs5)cnn34)c2)n1
Second: O=C(Cn1c(-c2ccc(Cl)cc2)nc2cccnc21)N1CCN(c2cccc(C(F)(F)F)c2)CC1
The melting point of the first is lower: 174 °C for the first, 185 to 186 °C for the second.

Compared with `FC(F)(F)c1cccc(C2=NOC(CNC(=S)N3CCOCC3)C2)c1` (stereo not given), `O=C(Nc1nc(=O)c2cnn3c2n1CC=C3c1cccc(C(F)(F)F)c1)C(F)(F)F` is higher in melting point: 118 to 120 °C for the first, 184 to 185 °C for the second.

Compared with `Cc1c2c(nc3ccccc13)CCN(C(=O)C(F)(F)F)CC2`, `O=C(Nc1ccc(N2CCN(C(=O)C(F)(F)F)CC2)cc1)C(F)(F)F` is higher in melting point: 147 °C for the first, 193 to 194 °C for the second.

First: CC(C)(C)OC(=O)NCCNC(=O)c1ccc(Br)cn1
Second: CCOC(=O)C(C)=NNc1ccc(Br)cc1
The melting point of the first is lower: 118 °C for the first, 153 to 154 °C for the second.

Compared with `COc1ccc(CCNC(=O)c2ccc3n2Cc2ccccc2N(C(=O)c2ccc(-c4ccccc4C)c(C)c2)C3)cc1`, `CC1(C)CCCC(C)(C)N1Cc1ccc2cc(NC(=O)c3ccc(-c4ccccc4)cc3)ccc2n1` is higher in melting point: 170 to 172 °C for the first, 200 to 201 °C for the second.

Compared with `Nc1cccc2c(=O)[nH]ncc12`, `O=c1c(CCCl)n[nH]c2ccccc12` is lower in melting point: 289 to 291 °C for the first, 201 to 203 °C for the second.

First: O=C1CCc2c(-c3ccncc3)sc(-c3ccc(F)cc3)c21
Second: CCc1coc2c(-c3ccc(F)cc3)c(-c3ccc(S(N)(=O)=O)cc3)nn12
The melting point of the first is lower: 193 to 195 °C for the first, 234 to 236 °C for the second.

First: CCOC(=O)c1c(CC(C)C)nc2c(C(F)(F)F)cccc2c1O
Second: COC(=O)c1cnnc2c(C)cccc12
The melting point of the first is higher: 100 °C for the first, 90 to 91 °C for the second.

First: OCc1ccc2c(c1)ncn2-c1cccc(COCc2ccccn2)c1
Second: Cn1nc(N)cc1COCc1ccccc1
The melting point of the first is lower: 101 to 103 °C for the first, 214 °C for the second.

Compared with `CC12CCC3C4CCC(=O)C=C4CCC3C1CCC2=O` (stereo not given), `CC(=O)OC1CCC2C3CCC4CC(=O)CC(C)C4(C)C3CCC12C` (stereo not given) is higher in melting point: 163 to 169 °C for the first, 179 to 180 °C for the second.

Compared with `O=C(Nc1ccncc1)c1ccc(OC(F)F)c2oc3ccccc3c12`, `C[C@H](Nc1ncnc2[nH]cnc12)c1oc2ccccc2c(=O)c1-c1cccc(F)c1` is lower in melting point: 230 °C for the first, 135 to 138 °C for the second.

First: COc1cc(OC)c2c(=O)[nH]c(-c3cccc(-c4ccc(S(C)=O)cc4)c3)nc2c1 (stereo not given)
Second: COc1cc(Nc2nc3cccc(-c4ccc(NC(C)=O)cc4)c3o2)cc(OC)c1OC
The melting point of the first is higher: > 300 °C for the first, 265 to 270 °C for the second.

First: O=[N+]([O-])c1cn2c(n1)O[C@@H](COc1ccc(N3CCC(Nc4ccc(OC(F)(F)F)cc4)CC3)cc1)CC2
Second: Cc1nc(NCCc2ccccc2)sc1-c1ccnc(Nc2ccc(N3CCOCC3)cc2)n1
The melting point of the first is lower: 189 to 190 °C for the first, 226 to 228 °C for the second.

First: N#Cc1ccccc1NC(=O)c1snc(Cl)c1Cl
Second: O=[N+]([O-])c1ccccc1Nc1nc(-c2ccccc2)cs1
The melting point of the first is higher: 191 to 193 °C for the first, 114 to 116 °C for the second.

First: CCn1c(=O)n(N(Cc2ccccc2)Cc2ccccc2)c(=O)c2cc(F)c(F)cc21
Second: C#CCn1nnc(SC(c2ccccc2)c2ccccc2)n1
The melting point of the first is higher: 133 to 135 °C for the first, 85 to 86 °C for the second.

Compared with `COc1cc2cc(C(=O)N3CC(CCl)c4c3cc(NC(=O)C(C)(C)c3ccccc3[N+](=O)[O-])c3ccccc43)[nH]c2c(OC)c1OC` (stereo not given), `CCOc1ccc2c(c1)C(C)(c1cc(NC(=O)CN(C)C)ccc1Cl)C(=O)N2S(=O)(=O)c1ccc(C(=O)NC(C)(C)C)cc1OC` (stereo not given) is higher in melting point: 139 to 143 °C for the first, 150 °C for the second.

First: CSc1ccc(NC(=O)C2C(=O)N(c3ccccc3)N=C2C)cc1 (stereo not given)
Second: Cc1ccc2c(c1)S/C(=C(/N)c1ccccc1)C2=O
The melting point of the first is higher: 196 to 199 °C for the first, 166 to 167 °C for the second.

Compared with `CC(C)(C)c1nc(C=NO)ncc1O`, `CCn1nc(C(F)(F)F)c(C)c1O` is lower in melting point: 205 to 220 °C for the first, 150 to 152 °C for the second.

Compared with `CC1COc2c(Br)c(F)cc3c(=O)c(C(=O)O)cn1c23` (stereo not given), `Nc1cc(-n2cc(C(=O)O)c(=O)c3cc(F)c(NCC(O)C(F)(F)F)c(Cl)c32)c(F)cc1F` (stereo not given) is lower in melting point: > 250 °C for the first, 134 to 138 °C for the second.

`CC1C(=O)NN(c2cc(Cl)cc(Cl)c2)C1=O` (stereo not given) and `CCOc1ccc2[nH]c(=O)n(-c3ccccc3Cl)c2c1` cannot be ordered by melting point: 95 to 100 °C for the first, 97 °C for the second.

First: CN1CCOc2ccc(N)cc2C1=O
Second: Brc1cc2c(nc1-c1ccccc1)OCC2
The melting point of the first is higher: 165 °C for the first, 83.5 to 85.5 °C for the second.

First: CCCCn1c(=O)[nH]c(=O)c2c1ncn2CC(C)=O
Second: CCOC(=O)Cn1c2cccccc-2c(C#N)c1=O
The melting point of the first is higher: 218 °C for the first, 149 to 151 °C for the second.

Compared with `CNC(=O)C(C)(C)N(OC(C)(C)C#N)C(C)(C)C`, `C[C@@H]1N(C(=O)OC(C)(C)C)CC[C@]1(C)O` is higher in melting point: 96 to 101 °C for the first, 109 to 112 °C for the second.

First: CN(C)NC(=O)NC1c2ccccc2Oc2ccccc21
Second: O=[N+]([O-])c1cc(C(F)(F)F)ccc1SCc1ccccc1
The melting point of the first is higher: 189 to 191 °C for the first, 132 to 136 °C for the second.

First: N#CC(C#N)=C1N(CCCN2CCc3ccccc3C2)CCN1CCN1CCCCC1
Second: Oc1ccc(OCCN2CCC(CC34CC5CC(CC(C5)C3)C4)CC2)cc1
The melting point of the first is lower: 79 to 81 °C for the first, 178 to 179 °C for the second.

Compared with `CCc1nc(OCc2ccc(Oc3ccc(C(F)(F)F)cc3)cc2)c(C)c(=O)n1CC`, `Cc1ccccc1CC(=NC#N)NC(NC(=O)Cc1ccc(Cl)cc1)C(C)(C)C` (stereo not given) is higher in melting point: 93.8 to 95.7 °C for the first, 183 to 185 °C for the second.

First: CCN(CCCCCCCCN(CC)S(=O)(=O)c1ccc(C)cc1)S(=O)(=O)c1ccc(C)cc1
Second: Cc1ccc(S(=O)(=O)NC(Cc2ccccc2)C(=O)Nc2c(C(C)C)cccc2C(C)C)cc1 (stereo not given)
The melting point of the first is lower: 112 to 113 °C for the first, 183 to 184 °C for the second.

First: CCCOc1c2nc(C(=O)OC)cc(O)c2cc2c(O)cc(C(=O)OC)nc12
Second: CCCC(=O)c1cnc2c(OCCOCCO)cccc2c1Nc1ccccc1C
The melting point of the first is higher: 245 to 247 °C for the first, 144 to 146 °C for the second.

Compared with `CCOC(=O)c1cc(C#N)c(Cl)cc1OC`, `COc1ccc2cc([C@H](C)C(=O)SCCCCO[N+](=O)[O-])ccc2c1` is lower in melting point: 102 to 103 °C for the first, 30 to 35 °C for the second.

First: Cc1ccc(C(=O)Nc2cc3c(cc2N)C(C)(C)CCC3(C)C)cc1
Second: C[C@@H](CO)Oc1ccc2cc(Br)ccc2c1
The melting point of the first is higher: 180 °C for the first, 71 to 72 °C for the second.

First: CCc1nc(C)c(C(C)(O)c2ccsc2)o1 (stereo not given)
Second: OCc1cc2cccc(Br)c2s1
The melting point of the first is lower: 77.5 to 79 °C for the first, 82 to 83 °C for the second.

First: CC1(C)C(=O)Nc2cc3[nH]c(C4=CCCC4)nc3cc21
Second: Cc1cc(-c2nc3cccnn3c2-c2ccnc(NC(=O)NC3CCCCC3)c2)ccc1F
The melting point of the first is higher: 233 to 235 °C for the first, 229 to 230 °C for the second.

First: CC(=CCO)c1ccc(C2CCCCC2)cc1
Second: O=C(N[C@H]1CC[C@@H](O)C1)OCc1ccccc1 (relative stereo)
The melting point of the first is lower: 54 to 55 °C for the first, 62 to 63 °C for the second.

Compared with `COc1ccc(C(=O)c2noc(CC(=O)O)n2)cc1`, `C#CCC(CC#C)(C(=O)O)S(=O)(=O)c1ccc(OC)cc1` is higher in melting point: 126 to 127 °C for the first, 156 °C for the second.

First: Cc1cc(C(=O)N2CCOCC2)ncc1C(c1cc(F)ccc1F)S(=O)(=O)c1ccc(F)cc1 (stereo not given)
Second: OC1CCN(c2ncc(-c3ccc(Cl)cc3)cn2)CC1
The melting point of the first is lower: 165 to 167 °C for the first, 168 to 170 °C for the second.

`CCOC(=O)CCc1[nH]c2cccc3c2c1CC1C3CC(NC(=O)N(CC)CC)CN1C` (stereo not given) and `CC(O)Cn1nc(-c2cnc3[nH]cc(C(=O)NC(C)C(=O)N4CC(C#N)C4)c3n2)c2ccc(Cl)cc21` (stereo not given) cannot be ordered by melting point: 160 to 161 °C for the first, 160 to 165 °C for the second.

First: CCCCCCCCNCC(O)COc1ccc(SC)cc1 (stereo not given)
Second: COc1ccccc1OCCNCCCc1c[nH]c2ccc(F)cc12
The melting point of the first is lower: 79.5 to 80.5 °C for the first, 125 to 126 °C for the second.

Compared with `CNc1nc(N(C)C)nc2c1nnn2Cc1ccccc1F`, `O=S(=O)(CC(O)Cn1ccnc1)c1ccccc1` (stereo not given) is lower in melting point: 199 to 200 °C for the first, 153 to 156 °C for the second.

First: O=S(=O)(CCCl)CCC(F)(F)C(F)(F)C(F)(F)C(F)(F)C(F)(F)C(F)(F)F
Second: O=C(O)CCc1ccc(CO)cc1
The melting point of the first is lower: 104 to 106 °C for the first, 124 to 126 °C for the second.
